Experimental findings from ChEMBL document CHEMBL5360577, “Multicomponent Petasis reaction for the identification of pyrazine based multi-target directed anti-Alzheimer's agents: In-silico design, synthesis, and characterization” (Eur J Med Chem, 2023) are described below.

One may read the inhibition as the percentage by which the read-out fell short of the control. In general, pIC50 refers to the IC50 on a negative log10 scale, so that one unit is a factor of ten. A word on the pEC50: it is the EC50 on a negative log10 scale, so that one unit is a factor of ten.

Assay [1] deals with T1, Microtubule-associated protein tau (Homo sapiens, UniProt P10636). The assay is described as follows: Inhibition of cellular tau (unknown origin) aggregation at 10 uM incubated for 2 hrs by FRET assay.
T1 sequence (P10636 whole entry): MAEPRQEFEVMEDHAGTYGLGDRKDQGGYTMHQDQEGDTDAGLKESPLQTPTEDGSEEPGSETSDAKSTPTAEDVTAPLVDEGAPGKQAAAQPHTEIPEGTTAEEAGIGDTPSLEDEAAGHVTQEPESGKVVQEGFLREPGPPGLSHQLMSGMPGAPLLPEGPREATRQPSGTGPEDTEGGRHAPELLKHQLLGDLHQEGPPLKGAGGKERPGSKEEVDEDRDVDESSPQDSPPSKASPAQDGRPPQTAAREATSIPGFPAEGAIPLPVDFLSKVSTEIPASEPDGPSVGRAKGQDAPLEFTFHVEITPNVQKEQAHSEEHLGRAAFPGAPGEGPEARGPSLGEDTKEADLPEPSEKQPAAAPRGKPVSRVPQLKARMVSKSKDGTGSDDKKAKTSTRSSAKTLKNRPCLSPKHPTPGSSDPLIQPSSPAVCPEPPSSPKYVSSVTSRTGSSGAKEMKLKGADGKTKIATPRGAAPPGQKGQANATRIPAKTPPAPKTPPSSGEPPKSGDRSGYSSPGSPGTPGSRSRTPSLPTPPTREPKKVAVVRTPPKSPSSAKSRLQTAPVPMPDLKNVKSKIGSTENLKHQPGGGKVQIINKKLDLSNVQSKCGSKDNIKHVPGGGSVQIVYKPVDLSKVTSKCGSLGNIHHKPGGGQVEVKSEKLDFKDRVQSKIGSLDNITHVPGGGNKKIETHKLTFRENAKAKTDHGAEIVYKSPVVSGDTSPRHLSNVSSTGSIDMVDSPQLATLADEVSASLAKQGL
The test system of another assay is SH-SY5Y. Kind of assay: Neuroprotective activity in human SH-SY5Y cell model transfected with wild-type tau assessed as cell viability at 1 to 10 uM by MTT assay. Type of assay: functional, cell-based. The note with it: dose 1-10 µM. (In general: Tetrazolium dyes change colour on reduction, which living cells bring about.)
The target in assay [2] is T2, Acetylcholinesterase (Homo sapiens, UniProt P22303). Kind of assay: Inhibition of human AChE using acetylthiocholine as substrate by Ellman's method. Background: DTNB colorimetry detects thiols as they appear.
T2 sequence (P22303 whole entry): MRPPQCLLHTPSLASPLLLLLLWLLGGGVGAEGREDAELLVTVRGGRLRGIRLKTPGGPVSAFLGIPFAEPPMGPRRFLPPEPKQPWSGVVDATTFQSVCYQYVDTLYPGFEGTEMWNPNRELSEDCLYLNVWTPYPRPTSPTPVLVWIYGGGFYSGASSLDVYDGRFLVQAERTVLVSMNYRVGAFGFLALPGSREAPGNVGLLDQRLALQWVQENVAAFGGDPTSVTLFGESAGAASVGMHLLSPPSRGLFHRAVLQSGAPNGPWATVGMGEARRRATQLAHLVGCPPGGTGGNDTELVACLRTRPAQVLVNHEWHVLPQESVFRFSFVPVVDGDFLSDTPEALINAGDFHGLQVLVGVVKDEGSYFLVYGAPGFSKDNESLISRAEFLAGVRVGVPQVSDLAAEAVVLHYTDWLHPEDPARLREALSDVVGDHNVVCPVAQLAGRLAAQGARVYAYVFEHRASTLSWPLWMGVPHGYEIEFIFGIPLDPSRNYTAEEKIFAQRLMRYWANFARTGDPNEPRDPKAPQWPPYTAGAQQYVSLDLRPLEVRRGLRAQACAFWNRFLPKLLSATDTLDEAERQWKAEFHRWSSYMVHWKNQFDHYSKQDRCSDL
Assay [3] deals with T2, Acetylcholinesterase. Kind of assay: Inhibition of human AChE using acetylthiocholine as substrate at 10 uM by Ellman's method.
Assay [4] has as its target T1, Microtubule-associated protein tau. Kind of assay: Inhibition of cellular tau (unknown origin) aggregation incubated for 2 hrs by FRET assay.
A further assay concerns the target Cholinesterase (Homo sapiens, UniProt P06276). The assay is described as follows: Inhibition of human BuChE by Ellman's method.
Assay [5] has as its target T3, Amine oxidase [flavin-containing] B (Homo sapiens, UniProt P27338).
T3 sequence (P27338 whole entry): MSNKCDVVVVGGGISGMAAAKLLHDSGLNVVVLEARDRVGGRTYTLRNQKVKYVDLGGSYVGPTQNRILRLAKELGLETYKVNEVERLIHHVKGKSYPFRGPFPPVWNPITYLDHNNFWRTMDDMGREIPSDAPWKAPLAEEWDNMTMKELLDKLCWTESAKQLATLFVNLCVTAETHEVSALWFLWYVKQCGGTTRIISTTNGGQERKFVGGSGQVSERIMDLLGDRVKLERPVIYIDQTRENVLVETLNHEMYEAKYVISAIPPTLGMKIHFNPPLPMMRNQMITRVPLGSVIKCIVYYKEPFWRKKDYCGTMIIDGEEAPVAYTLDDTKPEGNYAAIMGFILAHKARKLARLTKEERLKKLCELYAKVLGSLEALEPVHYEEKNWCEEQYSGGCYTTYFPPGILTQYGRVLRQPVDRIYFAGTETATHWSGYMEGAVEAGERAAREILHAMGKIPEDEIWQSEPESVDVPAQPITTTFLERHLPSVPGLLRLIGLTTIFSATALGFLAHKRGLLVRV
Kind of assay: Inhibition of human MAO-B by fluorometric assay.

Assay [6] has as its target T2, Acetylcholinesterase. The assay is described as follows: Inhibition of human AChE by Ellman's method.
For assay [7], the target named is T1, Microtubule-associated protein tau. Kind of assay: Inhibition of tau (unknown origin) aggregation at 10 uM relative to control.
In assay [8] the target is Amyloid-beta precursor protein (Homo sapiens) (UniProt P05067). Kind of assay: Inhibition of amyloid beta (unknown origin) aggregation at 10 uM relative to control.
Amyloid-beta precursor protein (Homo sapiens), sequence (P05067 whole entry): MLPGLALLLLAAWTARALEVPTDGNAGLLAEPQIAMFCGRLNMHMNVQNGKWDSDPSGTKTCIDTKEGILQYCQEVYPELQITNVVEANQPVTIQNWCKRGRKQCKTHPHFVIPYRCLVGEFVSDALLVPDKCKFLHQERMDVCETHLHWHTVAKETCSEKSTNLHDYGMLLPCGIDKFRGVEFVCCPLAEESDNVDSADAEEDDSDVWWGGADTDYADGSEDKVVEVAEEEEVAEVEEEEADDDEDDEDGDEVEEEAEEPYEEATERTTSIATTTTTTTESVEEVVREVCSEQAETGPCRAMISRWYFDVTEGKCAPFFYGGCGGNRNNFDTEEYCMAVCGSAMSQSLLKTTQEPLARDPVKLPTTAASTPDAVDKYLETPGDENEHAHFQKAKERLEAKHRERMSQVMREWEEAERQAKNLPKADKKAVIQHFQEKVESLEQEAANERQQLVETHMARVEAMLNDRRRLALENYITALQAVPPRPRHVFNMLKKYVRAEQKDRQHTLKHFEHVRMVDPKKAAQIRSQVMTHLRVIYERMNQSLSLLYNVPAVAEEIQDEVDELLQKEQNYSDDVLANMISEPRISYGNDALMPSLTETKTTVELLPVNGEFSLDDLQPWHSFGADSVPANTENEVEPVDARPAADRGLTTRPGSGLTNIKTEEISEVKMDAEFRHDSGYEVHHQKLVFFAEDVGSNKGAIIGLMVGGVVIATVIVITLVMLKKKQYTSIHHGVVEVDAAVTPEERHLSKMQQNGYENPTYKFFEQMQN
The target in assay [9] is T2, Acetylcholinesterase. The assay is described as follows: Inhibition of human AChE using acetylthiocholine as substrate at 10 uM by Ellman's method relative to control.

SMILES strings stand for the structures. pEC50, pIC50: −log10 of the molar value. Active and inactive are the calls of the source. The calls are words filed in the database; no cut-off is given here.

Cholinesterase, sequence (P06276 whole entry): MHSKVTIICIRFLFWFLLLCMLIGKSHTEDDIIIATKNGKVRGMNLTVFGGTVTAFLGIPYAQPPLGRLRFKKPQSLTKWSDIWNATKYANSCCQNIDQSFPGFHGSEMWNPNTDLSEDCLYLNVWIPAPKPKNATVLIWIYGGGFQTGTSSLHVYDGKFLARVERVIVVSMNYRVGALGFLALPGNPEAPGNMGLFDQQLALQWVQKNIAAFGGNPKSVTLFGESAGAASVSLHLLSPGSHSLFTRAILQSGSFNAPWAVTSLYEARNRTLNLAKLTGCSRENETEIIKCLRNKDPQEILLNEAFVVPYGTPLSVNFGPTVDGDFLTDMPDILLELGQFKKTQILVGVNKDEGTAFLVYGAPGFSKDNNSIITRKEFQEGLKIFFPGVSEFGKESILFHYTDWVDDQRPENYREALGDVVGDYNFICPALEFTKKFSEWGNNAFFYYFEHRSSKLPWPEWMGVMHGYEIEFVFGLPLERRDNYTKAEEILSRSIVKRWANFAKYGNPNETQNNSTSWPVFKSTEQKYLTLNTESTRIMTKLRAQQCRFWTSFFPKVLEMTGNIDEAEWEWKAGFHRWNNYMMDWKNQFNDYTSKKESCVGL

For the compound `COc1cccc(C(c2ccc(F)cc2)N2CCN(c3cnccn3)CC2)c1O` (configuration not stated), the inhibition result (in assay [1]; on Acetylcholinesterase [3]) was “Active” each time. Further, in the assay with SH-SY5Y, the outcome was Active. Besides, at Acetylcholinesterase [2], the pIC50 was 6.15. In [4], this compound had a pEC50 of 5.66.

Turning to `Cc1cc(C)c(C(=O)/C=C/c2nc(C)c(C)nc2C)cc1C`, the pIC50 was 4.42 on Cholinesterase, 4.95 in [5] and 5.62 against Acetylcholinesterase [6].

Regarding `OC(CNCCC(c1ccccc1)c1ccccc1)CNCc1ccccc1` (configuration not stated), the inhibition is 68% in [7] and 80% in assay [8].

With `Cc1ccc(C(c2ccccc2O)N2CCN(c3cnccn3)CC2)cc1` (configuration not stated), the inhibition entry (in assay [1]; on Acetylcholinesterase [3]) was “Active” throughout. Also, the outcome in the assay with SH-SY5Y was Active. Moreover, on Acetylcholinesterase [2], the pIC50 was 5.96. In assay [4], this compound had a pEC50 of 5.57.

Consider `Oc1ccccc1C(c1ccc(C(F)(F)F)cc1)N1CCN(c2cnccn2)CC1` (configuration not stated), for which, at Acetylcholinesterase [9], the inhibition was less than 40%. In addition, at Acetylcholinesterase [3], the inhibition entry is “Active”.
